Patent US8471005B2 (Cephalon, Inc., priority 2008, dated 2013)
pIC50: −log10 of the molar value. Read-outs that look alike come from different tables or passages of the source.

How the values were obtained:
ALK = molecular target: T1, ALK (Homo sapiens, UniProt Q9UM73); assay: ALK Kinase Assay (ELISA/TRF, PLC-γ substrate); type: biochemical; details: read-out: ALK Potency
T1 construct: host or cells: baculovirus expression system
Procedure, shortened: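 PLC-γ coat 10 μg/mL in TBS; ALK 30 ng/ml added to start; 37° C, 15 min; Eu-N1 PT66 antibody detection (TRF). IC50: % inhibition vs log10 [cpd], variable-slope sigmoidal fit.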

JAK2 = molecular target: T2, JAK2 (Homo sapiens, UniProt O60674); assay: Recombinant Human JAK2 Kinase Assay (TRF); type: biochemical; details: read-out: JAK2 Potency
T2 construct: host or cells: baculovirus expression system
Procedure, shortened: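 Baculovirus-expressed JAK2 (15 ng/ml) phosphorylated a biotinylated 15-mer peptide captured on Neutravidin, in 20 mM HEPES pH 7.2, 0.2 μM ATP, 1 mM MnCl2, 0.1% BSA, 2.5% DMSO final, 20 min at room temperature. Phosphoproduct detected by time-resolved fluorescence with Eu-N1-labelled PY100 antibody.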

[1] = ALK kinase inhibition, 1 μM ATP
[2] = JAK2 kinase inhibition, 0.2 μM ATP

T2 sequence (O60674 whole entry): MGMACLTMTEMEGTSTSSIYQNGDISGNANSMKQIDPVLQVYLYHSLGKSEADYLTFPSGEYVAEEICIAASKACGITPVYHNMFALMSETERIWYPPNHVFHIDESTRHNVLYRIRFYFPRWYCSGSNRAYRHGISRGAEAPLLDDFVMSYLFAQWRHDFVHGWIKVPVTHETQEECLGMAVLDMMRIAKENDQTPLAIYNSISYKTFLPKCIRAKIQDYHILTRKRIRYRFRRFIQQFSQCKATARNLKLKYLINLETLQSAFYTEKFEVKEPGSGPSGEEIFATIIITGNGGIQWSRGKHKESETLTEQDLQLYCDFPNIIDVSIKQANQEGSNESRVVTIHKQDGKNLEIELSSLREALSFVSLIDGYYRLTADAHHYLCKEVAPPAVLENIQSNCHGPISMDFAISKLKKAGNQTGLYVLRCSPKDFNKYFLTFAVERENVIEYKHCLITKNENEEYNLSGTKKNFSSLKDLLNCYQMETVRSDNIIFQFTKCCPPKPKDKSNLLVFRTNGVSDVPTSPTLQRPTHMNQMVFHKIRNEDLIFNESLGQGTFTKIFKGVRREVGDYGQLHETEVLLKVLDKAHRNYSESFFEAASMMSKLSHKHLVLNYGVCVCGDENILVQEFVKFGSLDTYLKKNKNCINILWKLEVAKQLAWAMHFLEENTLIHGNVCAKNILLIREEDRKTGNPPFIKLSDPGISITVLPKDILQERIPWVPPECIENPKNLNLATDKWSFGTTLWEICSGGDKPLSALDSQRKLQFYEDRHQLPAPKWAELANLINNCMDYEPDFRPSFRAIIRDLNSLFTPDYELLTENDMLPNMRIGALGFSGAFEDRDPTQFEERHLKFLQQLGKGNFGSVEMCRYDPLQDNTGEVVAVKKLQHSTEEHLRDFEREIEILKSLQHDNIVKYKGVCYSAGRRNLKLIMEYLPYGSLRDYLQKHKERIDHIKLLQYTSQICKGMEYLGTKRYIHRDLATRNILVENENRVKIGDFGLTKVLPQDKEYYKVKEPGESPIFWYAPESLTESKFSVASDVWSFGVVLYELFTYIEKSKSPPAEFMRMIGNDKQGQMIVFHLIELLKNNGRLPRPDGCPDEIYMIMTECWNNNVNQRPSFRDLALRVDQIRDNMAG
T1 sequence (Q9UM73 19-1620): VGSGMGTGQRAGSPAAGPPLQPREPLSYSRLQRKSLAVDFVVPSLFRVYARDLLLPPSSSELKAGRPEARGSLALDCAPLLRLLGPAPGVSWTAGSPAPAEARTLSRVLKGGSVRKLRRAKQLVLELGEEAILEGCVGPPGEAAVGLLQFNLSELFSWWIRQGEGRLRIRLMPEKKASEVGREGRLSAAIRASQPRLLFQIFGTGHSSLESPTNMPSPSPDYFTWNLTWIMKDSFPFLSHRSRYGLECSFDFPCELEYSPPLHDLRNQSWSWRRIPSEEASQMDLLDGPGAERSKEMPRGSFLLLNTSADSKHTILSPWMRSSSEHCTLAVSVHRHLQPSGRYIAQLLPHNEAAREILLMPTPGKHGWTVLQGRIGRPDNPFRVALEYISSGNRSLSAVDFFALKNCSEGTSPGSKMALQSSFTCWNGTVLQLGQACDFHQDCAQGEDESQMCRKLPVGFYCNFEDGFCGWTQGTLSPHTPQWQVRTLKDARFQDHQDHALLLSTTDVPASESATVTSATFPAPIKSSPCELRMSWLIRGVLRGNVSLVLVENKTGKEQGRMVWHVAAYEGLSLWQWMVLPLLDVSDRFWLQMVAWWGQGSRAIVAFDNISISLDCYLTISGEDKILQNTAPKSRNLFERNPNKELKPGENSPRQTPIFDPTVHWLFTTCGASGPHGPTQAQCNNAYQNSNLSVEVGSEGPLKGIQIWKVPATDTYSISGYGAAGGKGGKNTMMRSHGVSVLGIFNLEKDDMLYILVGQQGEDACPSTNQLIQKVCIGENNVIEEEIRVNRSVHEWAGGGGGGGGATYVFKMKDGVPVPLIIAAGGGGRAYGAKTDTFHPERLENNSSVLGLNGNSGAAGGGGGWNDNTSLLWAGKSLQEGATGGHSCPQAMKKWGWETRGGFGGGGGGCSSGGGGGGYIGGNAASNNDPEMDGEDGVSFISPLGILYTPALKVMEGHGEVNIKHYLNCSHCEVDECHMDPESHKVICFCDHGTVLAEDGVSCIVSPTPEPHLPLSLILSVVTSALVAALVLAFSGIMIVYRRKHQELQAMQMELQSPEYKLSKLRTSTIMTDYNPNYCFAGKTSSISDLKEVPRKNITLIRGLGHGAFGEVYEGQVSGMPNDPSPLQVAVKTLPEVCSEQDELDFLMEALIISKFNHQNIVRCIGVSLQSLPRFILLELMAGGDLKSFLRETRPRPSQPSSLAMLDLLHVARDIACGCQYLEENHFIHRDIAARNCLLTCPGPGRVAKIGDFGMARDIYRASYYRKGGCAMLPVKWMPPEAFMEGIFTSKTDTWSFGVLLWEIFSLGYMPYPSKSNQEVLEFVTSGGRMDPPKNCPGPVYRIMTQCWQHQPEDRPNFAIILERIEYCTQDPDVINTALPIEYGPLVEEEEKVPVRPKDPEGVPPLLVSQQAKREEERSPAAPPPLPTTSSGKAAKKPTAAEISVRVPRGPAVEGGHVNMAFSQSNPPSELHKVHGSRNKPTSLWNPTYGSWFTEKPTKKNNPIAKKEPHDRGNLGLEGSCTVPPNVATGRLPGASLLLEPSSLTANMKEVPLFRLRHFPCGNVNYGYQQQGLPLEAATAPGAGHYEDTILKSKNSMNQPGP

| pIC50 (ALK; [1]) | pIC50 (JAK2; [2]) | pIC50 (ALK; ALK Kinase Inhibition) | pIC50 (JAK2; JAK2 Kinase Inhibition) | Compound |
| --- | --- | --- | --- | --- |
| > 7.00 | 5.00 to 6.00 | – | – | COc1cc(CN2CCN(C(=O)OC(C)(C)C)CC2)ccc1Nc1ncc2ccc(-c3ccccc3N(C)S(C)(=O)=O)n2n1 [Example 1222, 4-(4-{7-[2-(Methanesulfonyl-methyl-amino)-phenyl]-pyrrolo[2,1-f][1,2,4]triazin-2-ylamino}-3-methoxy-benzyl)-piperazine-1-carboxylic acid tert-butyl ester] |
| 5.00 to 6.00 | > 7.00 | – | – | O=S(=O)(c1cccc(-c2ccc3cnc(Nc4ccc5nc(CO)[nH]c5c4)nn23)c1)N1CCCC1 [Example 1070, (6-{7-[3-(Pyrrolidine-1-sulfonyl)-phenyl]-pyrrolo[2,1-f][1,2,4]triazin-2-ylamino}-1H-benzoimidazol-2-yl)-methanol] |
| – | – | 5.00 to 6.00 | > 7.00 | OCc1cccc(-c2ccc3cnc(Nc4cccc(N5CCOCC5)c4)nn23)c1 [Example 1561, {3-[2-(3-Morpholin-4-yl-phenylamino)-pyrrolo[2,1-f][1,2,4]triazin-7-yl]-phenyl}-methanol] |
| – | – | 5.00 to 6.00 | > 7.00 | CS(=O)(=O)CCNC(=O)c1ccc(-c2ccc3cnc(Nc4ccc(N5CCOCC5)cc4)nn23)cc1 [Example 117, N-(2-Methanesulfonyl-ethyl)-4-[2-(4-morpholin-4-yl-phenylamino)-pyrrolo[2,1-f][1,2,4]triazin-7-yl]-benzamide] |
| – | – | 5.00 to 6.00 | > 7.00 | CS(=O)(=O)c1ccc(-c2ccc3cnc(Nc4ccc(N5CCC(CO)CC5)cc4)nn23)cc1 [Example 87, (1-{4-[7-(4-Methanesulfonyl-phenyl)-pyrrolo[2,1-f][1,2,4]triazin-2-ylamino]-phenyl}-piperidin-4-yl)-methanol] |
| 6.00 to 7.00 | 6.00 to 7.00 | – | – | COc1cc([C@@H]2CCN(C(=O)OC(C)(C)C)C[C@@H]2O)ccc1Nc1ncc2ccc(-c3ccccc3OC)n2n1 (racemic) [Example 834, (±)-(3R,4S)-3-Hydroxy-4-{3-methoxy-4-[7-(2-methoxy-phenyl)-pyrrolo[2,1-f][1,2,4]triazin-2-ylamino]-phenyl}-piperidine-1-carboxylic acid tert-butyl ester] |
| > 7.00 | 6.00 to 7.00 | – | – | COc1cc(C2CCN(CC(N)=O)CC2)ccc1Nc1ncc2ccc(-c3ccccc3N(C)S(C)(=O)=O)n2n1 [Example 812, 2-[4-(4-{7-[2-(Methanesulfonyl-methyl-amino)-phenyl]-pyrrolo[2,1-f][1,2,4]triazin-2-ylamino}-3-methoxy-phenyl)-piperidin-1-yl]-acetamide] |
| > 7.00 | 6.00 to 7.00 | – | – | COc1cc(C2CCN(C[C@@H](O)CO)CC2)c(F)cc1Nc1ncc2ccc(-c3ccccc3OC)n2n1 [Example 550, (R)-3-(4-{2-Fluoro-5-methoxy-4-[7-(2-methoxy-phenyl)-pyrrolo[2,1-f][1,2,4]triazin-2-ylamino]-phenyl}-piperidin-1-yl)-propane-1,2-diol] |
| > 7.00 | > 7.00 | – | – | COc1cc(C2CCN(C)CC2OC)ccc1Nc1ncc2ccc(-c3ccccc3OC)n2n1 (racemic) [Example 859, (±)-[2-Methoxy-4-(3-methoxy-1-methyl-piperidin-4-yl)-phenyl]-[7-(2-methoxy-phenyl)-pyrrolo[2,1-f][1,2,4]triazin-2-yl]-amine] |
| 6.00 to 7.00 | > 7.00 | – | – | CN1CCN(c2ccc(Nc3ncc4ccc(-c5cccc(NS(C)(=O)=O)c5)n4n3)cn2)CC1 [Example 1122, N-(3-{2-[6-(4-Methyl-piperazin-1-yl)-pyridin-3-ylamino]-pyrrolo[2,1-f][1,2,4]triazin-7-yl}-phenyl)-methanesulfonamide] |
| 6.00 to 7.00 | > 7.00 | – | – | CC(C)S(=O)(=O)c1cccc(-c2ccc3cnc(Nc4ccc(Cl)c(OC[C@H]5CCCN5)c4)nn23)c1 [Example 1016, [4-Chloro-3-((R)-1-pyrrolidin-2-ylmethoxy)-phenyl]-{7-[3-(propane-2-sulfonyl)-phenyl]-pyrrolo[2,1-f][1,2,4]triazin-2-yl}-amine] |
| 6.00 to 7.00 | > 7.00 | – | – | COc1ccncc1-c1ccc2cnc(Nc3ccc(N4CCN(C)CC4)cc3)nn12 [Example 1210, [7-(4-Methoxy-pyridin-3-yl)-pyrrolo[2,1-f][1,2,4]triazin-2-yl]-[4-(4-methyl-piperazin-1-yl)-phenyl]-amine] |
| 5.00 to 6.00 | < 5.00 | – | – | COc1ccc(C(=O)N2CCN(C)CC2)cc1Nc1ncc2ccc(-c3ccccc3OC)n2n1 [Example 494, {4-Methoxy-3-[7-(2-methoxy-phenyl)-pyrrolo[2,1-f][1,2,4]triazin-2-ylamino]-phenyl}-(4-methyl-piperazin-1-yl)-methanone] |
| > 7.00 | 6.00 to 7.00 | – | – | COc1cc(N2CCC(N3CCCN(CCO)CC3)CC2)ccc1Nc1ncc2ccc(-c3ccccc3N(C)S(C)(=O)=O)n2n1 [Example 803, N-{2-[2-(4-{4-[4-(2-Hydroxy-ethyl)-[1,4]diazepan-1-yl]-piperidin-1-yl}-2-methoxy-phenylamino)-pyrrolo[2,1-f][1,2,4]triazin-7-yl]-phenyl}-N-methyl-methanesulfonamide] |
| > 7.00 | 6.00 to 7.00 | – | – | COc1cc(C2CCN(CC(C)(C)O)CC2)ccc1Nc1ncc2ccc(-c3ccccc3N(C)S(C)(=O)=O)n2n1 [Example 866, N-[2-(2-{4-[1-(2-Hydroxy-2-methyl-propyl)-piperidin-4-yl]-2-methoxy-phenylamino}-pyrrolo[2,1-f][1,2,4]triazin-7-yl)-phenyl]-N-methyl-methanesulfonamide] |
| – | – | 6.00 to 7.00 | > 7.00 | CN1CCC(c2ccc(Nc3ncc4ccc(-c5ccccc5OCC(N)=O)n4n3)cc2)CC1 [Example 1409, 2-(2-{2-[4-(1-Methyl-piperidin-4-yl)-phenylamino]-pyrrolo[2,1-f][1,2,4]triazin-7-yl}-phenoxy)-acetamide] |

The remaining lines, values behind:

| Compound | pIC50 (ALK; [1]) | pIC50 (JAK2; [2]) | pIC50 (ALK; ALK Kinase Inhibition) | pIC50 (JAK2; JAK2 Kinase Inhibition) |
| --- | --- | --- | --- | --- |
| Clc1cccc(-c2ccc3cnc(Nc4ccc(N5CCOCC5)cc4)nn23)c1 [Example 1, [7-(3-Chloro-phenyl)-pyrrolo[2,1-f][1,2,4]triazin-2-yl]-(4-morpholin-4-yl-phenyl)-amine] | – | – | < 5.00 | > 7.00 |
| N-{2-[2-(5,5-Dimethyl-2-oxo-2,3,4,5-tetrahydro-1H-benzo[b]azepin-7-ylamino)pyrrolo[2,1-f][1,2,4]triazin-7-yl}-phenyl]methanesulfonamide [Example 624] | > 7.00 | > 7.00 | – | – |
| CS(=O)(=O)N1Cc2cccc(-c3ccc4cnc(Nc5ccc(C6CN(CC(N)=O)C6)cc5)nn34)c2C1 [Example 582, 2-(3-{4-[7-(2-Methanesulfonyl-2,3-dihydro-1H-isoindol-4-yl)-pyrrolo[2,1-f][1,2,4]triazin-2-ylamino]-phenyl}-azetidin-1-yl)-acetamide] | 5.00 to 6.00 | > 7.00 | – | – |
| CS(=O)(=O)c1ccc(-c2ccc3cnc(Nc4ccc5nc(C(F)(F)F)[nH]c5c4)nn23)cc1 [Example 1302, [7-(4-Methanesulfonyl-phenyl)-pyrrolo[2,1-f][1,2,4]triazin-2-yl]-(2-trifluoromethyl-3H-benzimidazol-5-yl)-amine] | < 5.00 | > 7.00 | – | – |
| COc1ccc(-c2ccc3cnc(Nc4cc5c(cc4F)CCC(=O)N5)nn23)cn1 [Example 983, 6-Fluoro-7-[7-(6-methoxy-pyridin-3-yl)-pyrrolo[2,1-f][1,2,4]triazin-2-ylamino]-3,4-dihydro-1H-quinolin-2-one] | < 5.00 | > 7.00 | – | – |
| COc1ccc(-c2ccc3cnc(Nc4ccn(CC(=O)N5CCN(C)CC5)n4)nn23)cn1 [Example 1115, 2-{3-[7-(6-Methoxy-pyridin-3-yl)-pyrrolo[2,1-f][1,2,4]triazin-2-ylamino]-pyrazol-1-yl}-1-(4-methyl-piperazin-1-yl)-ethanone] | 5.00 to 6.00 | > 7.00 | – | – |
| CN1CCN(C(=O)c2cccc(Nc3ncc4ccc(-c5cccnc5)n4n3)c2)CC1 [Example 341, (4-Methyl-piperazin-1-yl)-[3-(7-pyridin-3-yl-pyrrolo[2,1-f][1,2,4]triazin-2-ylamino)-phenyl]-methanone] | – | – | 5.00 to 6.00 | > 7.00 |
| NC(=O)CN1CCC(c2ccc(Nc3ncc4ccc(-c5cccc(N6CCCS6(=O)=O)c5)n4n3)cc2)CC1 [Example 1512, 2-{4-[4-({7-[3-(1,1-Dioxido-1,2-thiazolidin-2-yl)phenyl]pyrrolo[2,1-f][1,2,4]triazin-2-yl}amino)phenyl]piperidin-1-yl}acetamide] | – | – | 6.00 to 7.00 | > 7.00 |
| Clc1cccc(-c2ccc3cnc(Nc4ccc5[nH]ccc5c4)nn23)c1 [Example 176, [7-(3-Chloro-phenyl)-pyrrolo[2,1-f][1,2,4]triazin-2-yl]-(1H-indol-5-yl)-amine] | – | – | < 5.00 | > 7.00 |
| COc1cc(N2CCCN(C3CCN(CCO)CC3)CC2)ccc1Nc1ncc2ccc(-c3ccccc3OC)n2n1 [Example 800, 2-[4-(4-{3-Methoxy-4-[7-(2-methoxy-phenyl)-pyrrolo[2,1-f][1,2,4]triazin-2-ylamino]-phenyl}-[1,4]diazepan-1-yl)-piperidin-1-yl]-ethanol] | > 7.00 | 6.00 to 7.00 | – | – |
| COc1cc(N2CCC(N3CCN(C)CC3)CC2)ccc1Nc1ncc2cc3ccccc3n2n1 [Example 262, {2-Methoxy-4-[4-(4-methyl-piperazin-1-yl)-piperidin-1-yl]-phenyl}-[1,2,4]triazino[1,6-a]indol-2-yl-amine] | – | – | 6.00 to 7.00 | 5.00 to 6.00 |
| CS(=O)(=O)c1ccc(-c2ccc3cnc(Nc4ccc5[nH]c(=O)[nH]c5c4)nn23)cc1 [Example 1303, 5-[7-(4-Methanesulfonyl-phenyl)-pyrrolo[2,1-f][1,2,4]triazin-2-ylamino]-1,3-dihydro-benzimidazol-2-one] | 5.00 to 6.00 | > 7.00 | – | – |
